Laboratory results taken from ChEMBL document CHEMBL1201862, “PubChem BioAssay data set” (2004).
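Grown in 96-well plates, cells were treated for 48 hours with each compound at five concentrations. Insufficient inhibition: endpoint recorded as highest concentration tested. Abbreviation: GI50, concentration required for 50% inhibition of growth.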 Calls of active or inactive are those of the source. No stated cut-off is given here; in the data, active = GI50 up to about 1.1 µM and inactive = higher.

How the values were obtained:
Experiment in all cases: DTP human tumour cell line panel, 48 h
786-0 = test system: 786-0
A498 = test system: A498
A549 = test system: A549
ACHN = test system: ACHN
BT-549 = test system: BT-549
CAKI-1 = test system: CAKI-1
CCRF-CEM = test system: CCRF-CEM
COLO 205 = test system: COLO 205
DU-145 = test system: DU-145
EKVX = test system: EKVX
HCC 2998 = test system: HCC 2998
HCT-116 = test system: HCT-116
HCT-15 = test system: HCT-15
HL-60 = test system: HL-60
HOP-62 = test system: HOP-62
HOP-92 = test system: HOP-92
HT-29 = test system: HT-29
Hs-578T = test system: Hs-578T
IGROV-1 = test system: IGROV-1
K562 = test system: K562
KM12 = test system: KM12
LOX IMVI = test system: LOX IMVI
M14 = test system: M14
MCF7 = test system: MCF7
MDA-MB-231 = test system: MDA-MB-231
MDA-MB-435 = test system: MDA-MB-435
MDA-N = test system: MDA-N
MOLT-4 = test system: MOLT-4
Malme-3M = test system: Malme-3M
NCI-H226 = test system: NCI-H226
NCI-H23 = test system: NCI-H23
NCI-H460 = test system: NCI-H460
NCI-H522 = test system: NCI-H522
NCI/ADR-RES = test system: NCI/ADR-RES
OVCAR-3 = test system: OVCAR-3
OVCAR-4 = test system: OVCAR-4
OVCAR-5 = test system: OVCAR-5
OVCAR-8 = test system: OVCAR-8
PC-3 = test system: PC-3
RPMI-8226 = test system: RPMI-8226
RXF 393 = test system: RXF 393
SF-268 = test system: SF-268
SF-295 = test system: SF-295
SK-MEL-28 = test system: SK-MEL-28
SK-MEL-2 = test system: SK-MEL-2
SK-MEL-5 = test system: SK-MEL-5
SK-OV-3 = test system: SK-OV-3
SN12C = test system: SN12C
SNB-19 = test system: SNB-19
SNB-75 = test system: SNB-75
SR = test system: SR
SW-620 = test system: SW-620
T47D = test system: T47D
TK-10 = test system: TK-10
U-251 = test system: U-251
UACC-257 = test system: UACC-257
UACC-62 = test system: UACC-62
UO-31 = test system: UO-31
SF-539 = test system: SF-539

With `O=C1Oc2ccc([N+](=O)[O-])cc2N/C1=C\C(=O)c1ccccc1` the GI50 (786-0) was 52.6 µM (inactive), the GI50 (A498) was > 100 µM (inactive) and the GI50 (A549) was > 100 µM (inactive). For the same compound, the GI50 (ACHN) was > 100 µM (inactive), the GI50 (BT-549) was > 100 µM (inactive) and the GI50 (CAKI-1) was > 100 µM (inactive). For the same compound, the GI50 (CCRF-CEM) was 43.5 µM (inactive), the GI50 (COLO 205) was 97.5 µM (inactive) and the GI50 (DU-145) was > 100 µM (inactive). For the same compound, the GI50 (EKVX) was > 100 µM (inactive), the GI50 (HCC 2998) was 28.1 µM (inactive) and the GI50 (HCT-116) was > 100 µM (inactive). For the same compound, the GI50 (HCT-15) was over 100 µM, the GI50 (HL-60) was 62.4 µM (inactive) and the GI50 (HOP-62) was > 100 µM (inactive). For the same compound, the GI50 (HOP-92) was > 100 µM (inactive), the GI50 (HT-29) was > 100 µM (inactive) and the GI50 (Hs-578T) was > 100 µM (inactive). For the same compound, the GI50 (IGROV-1) was > 100 µM (inactive), the GI50 (K562) was > 100 µM (inactive) and the GI50 (KM12) was 55.1 µM (inactive). The GI50 (LOX IMVI) was > 100 µM (inactive), the GI50 (M14) was > 100 µM (inactive) and the GI50 (MCF7) was > 100 µM (inactive). For the same compound, the GI50 (MDA-MB-231) was 51.8 µM (inactive), the GI50 (MDA-MB-435) was > 100 µM (inactive) and the GI50 (MDA-N) was > 100 µM (inactive). The GI50 (MOLT-4) was > 100 µM (inactive), the GI50 (Malme-3M) was > 100 µM (inactive) and the GI50 (NCI-H226) was > 100 µM (inactive). The GI50 (NCI-H23) was > 100 µM (inactive), the GI50 (NCI-H460) was > 100 µM (inactive) and the GI50 (NCI-H522) was 76.2 µM (inactive). The GI50 (NCI/ADR-RES) was > 100 µM (inactive), the GI50 (OVCAR-3) was > 100 µM (inactive) and the GI50 (OVCAR-4) was > 100 µM (inactive). For the same compound, the GI50 (OVCAR-5) was > 100 µM (inactive), the GI50 (OVCAR-8) was > 100 µM (inactive) and the GI50 (PC-3) was 72.4 µM (inactive). For the same compound, the GI50 (RPMI-8226) was > 100 µM (inactive), the GI50 (RXF 393) was > 100 µM (inactive) and the GI50 (SF-268) was > 100 µM (inactive). The GI50 (SF-295) was > 100 µM (inactive), the GI50 (SK-MEL-28) was > 100 µM (inactive) and the GI50 (SK-MEL-2) was 27.9 µM (inactive). The GI50 (SK-MEL-5) was > 100 µM (inactive), the GI50 (SK-OV-3) was > 100 µM (inactive) and the GI50 (SN12C) was 62.1 µM (inactive). For the same compound, the GI50 (SNB-19) was > 100 µM (inactive), the GI50 (SNB-75) was 80 µM (inactive) and the GI50 (SR) was 74.1 µM (inactive). The GI50 (SW-620) was > 100 µM (inactive), the GI50 (T47D) was 97.5 µM (inactive) and the GI50 (TK-10) was 25.1 µM (inactive). For the same compound, the GI50 (U-251) was 78.5 µM (inactive), the GI50 (UACC-257) was > 100 µM (inactive) and the GI50 (UACC-62) was > 100 µM (inactive). For the same compound, the GI50 (UO-31) was > 100 µM (inactive).
For `CC(O)(C(=O)N(O)c1ccc(Cl)cc1)c1ccc(Cl)cc1` (stereo not drawn), the GI50 (786-0) was 28.8 µM (inactive), the GI50 (A498) was 25.5 µM (inactive) and the GI50 (A549) was 26.4 µM (inactive). The GI50 (ACHN) was 18.7 µM (inactive), the GI50 (BT-549) was 21.6 µM (inactive) and the GI50 (CAKI-1) was 23.9 µM (inactive). The GI50 (CCRF-CEM) was 6.08 µM (inactive), the GI50 (COLO 205) was 18.1 µM (inactive) and the GI50 (DU-145) was 34.4 µM (inactive). For the same compound, the GI50 (EKVX) was 39.3 µM (inactive), the GI50 (HCC 2998) was 13 µM (inactive) and the GI50 (HCT-116) was 28.4 µM (inactive). For the same compound, the GI50 (HCT-15) was 19.2 µM, the GI50 (HL-60) was 14.7 µM (inactive) and the GI50 (HOP-62) was 26.7 µM (inactive). For the same compound, the GI50 (HOP-92) was 20.3 µM (inactive), the GI50 (HT-29) was 31 µM (inactive) and the GI50 (Hs-578T) was 16.9 µM (inactive). The GI50 (IGROV-1) was 19.9 µM (inactive), the GI50 (K562) was 17.3 µM (inactive) and the GI50 (KM12) was 12.8 µM (inactive). For the same compound, the GI50 (LOX IMVI) was 24.4 µM (inactive), the GI50 (M14) was 34 µM (inactive) and the GI50 (MCF7) was 35.4 µM (inactive). For the same compound, the GI50 (MDA-MB-231) was 22.8 µM (inactive), the GI50 (MDA-MB-435) was 24.7 µM (inactive) and the GI50 (MDA-N) was 41.1 µM (inactive). For the same compound, the GI50 (MOLT-4) was 12.5 µM (inactive), the GI50 (Malme-3M) was 28.1 µM (inactive) and the GI50 (NCI-H226) was 40.6 µM (inactive). The GI50 (NCI-H23) was 23.4 µM (inactive), the GI50 (NCI-H460) was 34.2 µM (inactive) and the GI50 (NCI-H522) was 18.6 µM (inactive). For the same compound, the GI50 (NCI/ADR-RES) was 25.6 µM (inactive), the GI50 (OVCAR-3) was 25.2 µM (inactive) and the GI50 (OVCAR-4) was 37.9 µM (inactive). The GI50 (OVCAR-5) was 37.9 µM (inactive), the GI50 (OVCAR-8) was 27.2 µM (inactive) and the GI50 (PC-3) was 22.1 µM (inactive). The GI50 (RPMI-8226) was 11.2 µM (inactive), the GI50 (RXF 393) was 26.8 µM (inactive) and the GI50 (SF-268) was 23.7 µM (inactive). The GI50 (SF-295) was 27.3 µM (inactive), the GI50 (SF-539) was 32.5 µM (inactive) and the GI50 (SK-MEL-28) was 33.3 µM (inactive). The GI50 (SK-MEL-2) was 22.2 µM (inactive), the GI50 (SK-MEL-5) was 18.7 µM (inactive) and the GI50 (SK-OV-3) was 33.1 µM (inactive). For the same compound, the GI50 (SN12C) was 37.4 µM (inactive), the GI50 (SNB-19) was 48.2 µM (inactive) and the GI50 (SR) was 13.8 µM (inactive). For the same compound, the GI50 (SW-620) was 31.3 µM (inactive), the GI50 (T47D) was 31.6 µM (inactive) and the GI50 (TK-10) was 29.7 µM (inactive). For the same compound, the GI50 (U-251) was 23.6 µM (inactive), the GI50 (UACC-257) was 24.8 µM (inactive) and the GI50 (UACC-62) was 31.9 µM (inactive). For the same compound, the GI50 (UO-31) was 26.1 µM (inactive).
In the case of `COC(=O)C1(c2ccc(N(C)C)cc2OC)CCCN(C(=O)Oc2ccccc2[N+](=O)[O-])CCc2c1[nH]c1ccccc21` (stereo not drawn), the GI50 (A498) was > 100 µM (inactive), the GI50 (A549) was > 100 µM (inactive) and the GI50 (BT-549) was > 100 µM (inactive). For the same compound, the GI50 (CAKI-1) was > 100 µM (inactive), the GI50 (COLO 205) was > 100 µM (inactive) and the GI50 (DU-145) was > 100 µM (inactive). The GI50 (EKVX) was > 100 µM (inactive), the GI50 (HCC 2998) was > 100 µM (inactive) and the GI50 (HCT-116) was > 100 µM (inactive). For the same compound, the GI50 (HL-60) was 22.9 µM (inactive), the GI50 (HOP-62) was > 100 µM (inactive) and the GI50 (HOP-92) was > 100 µM (inactive). The GI50 (HT-29) was > 100 µM (inactive), the GI50 (Hs-578T) was > 100 µM (inactive) and the GI50 (IGROV-1) was > 100 µM (inactive). The GI50 (K562) was 78.3 µM (inactive), the GI50 (KM12) was > 100 µM (inactive) and the GI50 (LOX IMVI) was > 100 µM (inactive). For the same compound, the GI50 (M14) was > 100 µM (inactive), the GI50 (MCF7) was > 100 µM (inactive) and the GI50 (MDA-MB-231) was > 100 µM (inactive). The GI50 (MDA-MB-435) was > 100 µM (inactive), the GI50 (MDA-N) was > 100 µM (inactive) and the GI50 (MOLT-4) was 16.9 µM (inactive). The GI50 (Malme-3M) was > 100 µM (inactive), the GI50 (NCI-H226) was > 100 µM (inactive) and the GI50 (NCI-H23) was > 100 µM (inactive). The GI50 (NCI-H460) was > 100 µM (inactive), the GI50 (NCI-H522) was > 100 µM (inactive) and the GI50 (NCI/ADR-RES) was > 100 µM (inactive). For the same compound, the GI50 (OVCAR-3) was > 100 µM (inactive), the GI50 (OVCAR-5) was > 100 µM (inactive) and the GI50 (OVCAR-8) was > 100 µM (inactive). For the same compound, the GI50 (PC-3) was > 100 µM (inactive), the GI50 (RXF 393) was > 100 µM (inactive) and the GI50 (SF-268) was > 100 µM (inactive). The GI50 (SF-295) was > 100 µM (inactive), the GI50 (SF-539) was > 100 µM (inactive) and the GI50 (SK-MEL-28) was > 100 µM (inactive). For the same compound, the GI50 (SK-MEL-2) was > 100 µM (inactive), the GI50 (SK-MEL-5) was > 100 µM (inactive) and the GI50 (SK-OV-3) was > 100 µM (inactive). For the same compound, the GI50 (SN12C) was > 100 µM (inactive), the GI50 (SNB-75) was > 100 µM (inactive) and the GI50 (SR) was > 100 µM (inactive). For the same compound, the GI50 (SW-620) was > 100 µM (inactive), the GI50 (T47D) was > 100 µM (inactive) and the GI50 (TK-10) was > 100 µM (inactive). The GI50 (U-251) was > 100 µM (inactive), the GI50 (UACC-257) was > 100 µM (inactive) and the GI50 (UACC-62) was > 100 µM (inactive). For the same compound, the GI50 (UO-31) was 51.4 µM (inactive).
